This note sets out measurements from patent US8653099B2, “Cold menthol receptor antagonists” (Janssen Pharmaceutica, priority 2008, dated 2014).

Structures are written as SMILES. Where “and” joins values, the source holds several entries; their conditions need not be identical. Equal values may be shown once.

In the experiment the target is T1, canine TRPM8 (Canis lupus familiaris, UniProt Q1A7N1).
T1 construct: expressed in transfected cells
The experiment is described as follows: In vitro canine TRPM8 functional assay (icilin-induced Ca2+ fluorescence, FLIPR/FDSS). It counts as cell-based. Particulars: for inhibition at 0.2 µM: HEK293, 0.2 μM compound; for IC50: HEK293 cells stably expressing canine TRPM8, icilin at approx. 80% maximal response, eight-point dose-response; for inhibition at 0.5 µM: HEK293, 0.5 μM compound; for inhibition at 1 µM: HEK293, 1 μM compound. Here is the method: The functional activity of compounds of the formula (I) was determined by measuring changes in intracellular calcium concentration using a Ca^2+-sensitive fluorescent dye. The changes in fluorescent signal were monitored by a fluorescence plate reader, either a FLIPR™ (Molecular Devices) or FDSS (Hamamatsu).
HEK293 cells stably expressing canine TRPM8 were routinely grown as monolayers in Dulbecco's minimum essential medium supplemented with 10% FBS, 2 mM L-glutamine, 100 units/mL penicillin, 100 ug/mL streptomycin and 400 μg/mL G418. Cells were maintained in 5% CO2 at 37° C. At 24 hrs prior to assay, cells were seeded in black wall, clear-base poly-D-lysine coated 384-well plates (BD Biosciences, NJ, USA) at a density of 5,000 cells per well in culture medium and grown overnight in 5% CO2 at 37° C. On assay day, growth media was removed and cells were loaded with Calcium 3 Dye (Molecular Devices) for 35 min at 37° C., under 5% CO2 and then for 25 min at room temperature and atmosphere. Subsequently, cells were tested for agonist-induced increases in intracellular Ca^2+ levels using FLIPR™ or FDSS. Cells were challenged with compounds of the formula (I) (at varying concentrations) and intracellular Ca^2+ was measured for 5 min prior to the addition of icilin to all wells to achieve a final concentration that produces approximately an 80% maximal response.
Maximal fluorescence intensity (FI) achieved upon addition of icilin was exported from the FLIPR or FDSS software and further analyzed using GraphPad Prism 3.02 (Graph Pad Software Inc., CA, U.S.A.). Basal FI was subtracted prior to normalizing data to percent of maximal response. Curves were generated using the average of quadruplicate wells for each data point, were analyzed using nonlinear regression of either sigmoidal dose response or sigmoidal dose response (variable slope). Finally, the EC50 and IC50 values were calculated with the best-fit dose curve determined by GraphPad Prism.

The mark [1] stands for this setting: HEK293 canine TRPM8, icilin challenge.

T1 sequence (Q1A7N1 1-1104): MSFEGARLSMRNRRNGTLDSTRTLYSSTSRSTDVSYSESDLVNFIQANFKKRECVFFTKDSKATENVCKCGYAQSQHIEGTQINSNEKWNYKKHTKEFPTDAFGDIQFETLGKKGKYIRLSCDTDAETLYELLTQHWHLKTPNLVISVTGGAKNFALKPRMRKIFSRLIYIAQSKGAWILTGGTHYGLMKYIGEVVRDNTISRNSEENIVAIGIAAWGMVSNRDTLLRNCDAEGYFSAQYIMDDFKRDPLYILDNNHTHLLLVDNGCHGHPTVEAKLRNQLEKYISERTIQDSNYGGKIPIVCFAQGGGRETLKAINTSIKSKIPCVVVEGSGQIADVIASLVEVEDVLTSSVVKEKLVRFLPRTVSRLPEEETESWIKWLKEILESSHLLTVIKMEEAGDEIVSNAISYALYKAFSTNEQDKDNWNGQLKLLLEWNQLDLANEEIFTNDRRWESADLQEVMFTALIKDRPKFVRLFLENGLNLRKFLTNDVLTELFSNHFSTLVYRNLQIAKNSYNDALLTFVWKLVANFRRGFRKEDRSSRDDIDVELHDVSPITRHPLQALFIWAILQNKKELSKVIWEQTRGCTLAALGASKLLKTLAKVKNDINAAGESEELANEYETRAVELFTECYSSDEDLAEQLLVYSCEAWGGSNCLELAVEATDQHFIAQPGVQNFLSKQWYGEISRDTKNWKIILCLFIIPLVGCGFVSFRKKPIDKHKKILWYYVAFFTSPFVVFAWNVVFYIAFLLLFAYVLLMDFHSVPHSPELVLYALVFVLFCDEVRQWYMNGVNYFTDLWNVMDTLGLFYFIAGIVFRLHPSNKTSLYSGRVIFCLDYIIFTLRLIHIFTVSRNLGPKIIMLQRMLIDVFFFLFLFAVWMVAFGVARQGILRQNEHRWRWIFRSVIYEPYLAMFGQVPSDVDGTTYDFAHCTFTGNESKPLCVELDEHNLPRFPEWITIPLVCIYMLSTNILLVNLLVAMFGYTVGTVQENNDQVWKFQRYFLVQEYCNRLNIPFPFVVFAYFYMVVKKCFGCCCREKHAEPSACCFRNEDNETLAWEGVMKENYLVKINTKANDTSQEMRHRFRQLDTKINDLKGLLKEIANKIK

In turn, `O=C(Nc1cccc2ncccc12)C(Nc1cc(F)ccc1F)c1ccc(Cl)cc1` (stereo not shown) [Cpd 54] displayed an IC50 of 107 nM. Besides, the inhibition at 0.2 µM under setting [1] was determined as 77%.
For the compound `O=C(Nc1cccc2cccnc12)C(Nc1ccccc1)c1ccc(C(F)(F)F)cc1` (stereo not shown) [Cpd 29], the IC50 came out at 441 nM. Moreover, under setting [1], the inhibition at 0.5 µM was found to be 85.1%.
In turn, `O=C(Nc1cccc2[nH]ncc12)C(Nc1ccccc1)c1ccc(C(F)(F)F)cc1` (stereo not shown) [Cpd 27] had a half-maximal inhibitory concentration (IC50) of 84.5 nM. Besides, the inhibition at 0.5 µM under setting [1] was 101%.
Taken in the same sequence, the figures for `O=C(Nc1cccc2cnccc12)C(Nc1ccccc1)c1cccc(C(F)(F)F)c1` (stereo not shown) [Cpd 42] were 109 nM and 96%.
For the compound `CC(C)(C)c1ccc(C(Nc2ccccc2)C(=O)Nc2cccc3[nH]ncc23)cc1` (stereo not shown) [Cpd 5], half-maximal inhibition (IC50) was put at 118 nM. Also, the inhibition at 1 µM under setting [1] was found to be 100%.
As to `Cc1cccc(C)c1NC(C(=O)Nc1cccc2cnccc12)c1ccc(C(F)(F)F)cc1` (stereo not shown) [Cpd 25], the IC50 was found to be 273 nM. Besides, under setting [1], the inhibition at 0.5 µM is 99%.
On the same counts, the results for `O=C(Nc1cccc2cnccc12)C(Nc1ccc(F)cc1F)c1ccc(C(F)(F)F)cc1` (stereo not shown) [Cpd 50] are 115 nM and 98%.
On the same counts, the results for `O=C(Nc1cccc2cnccc12)C(c1ccc(C(F)(F)F)cc1)N1CCc2ccccc21` (stereo not shown) [Cpd 18, 2-(Indolin-1-yl)-N-(isoquinolin-5-yl)-2-(4-(trifluoromethyl)phenyl)acetamide] are 103 nM and 104%.
Consider `O=C(Nc1cccc2cnccc12)C(Nc1cc(F)ccc1F)c1ccc(Cl)cc1` (stereo not shown) [Cpd 53], for which the IC50 came to 65.3 nM. Moreover, the inhibition at 0.2 µM under setting [1] came to 90%.
Take `Cc1ccccc1NC(C(=O)Nc1cccc2cnccc12)c1ccc(C(F)(F)F)cc1` (stereo not shown) [Cpd 22]: the IC50 came out at 38.4 nM. Moreover, the inhibition at 0.5 µM under setting [1] was determined as 104%.
`O=C(Nc1cccc2[nH]ccc12)C(Nc1ccccc1)c1ccc(Cl)cc1` (stereo not shown) [Cpd 38] showed a half-maximal inhibitory concentration (IC50) of 181 nM. Further, the inhibition at 0.5 µM under setting [1] came out at 84%.
The compound `O=C(Nc1cccc2cnccc12)C(Nc1cccc(Cl)c1)c1ccc(C(F)(F)F)cc1` (stereo not shown) [Cpd 12] yielded an IC50 of 261 nM. Further, the inhibition at 0.5 µM under setting [1] turned out to be 101%.
Taken in the same sequence, the figures for `CC(C)(C)c1ccc(C(Nc2ccccc2)C(=O)Nc2cccc3cn[nH]c23)cc1` (stereo not shown) [Cpd 20] were 233 nM and 101%.
On the same counts, the results for `O=C(Nc1cccc2cnccc12)C(Nc1c(F)cccc1F)c1ccc(Cl)cc1` (stereo not shown) [Cpd 48] are 94 nM and 98%.
`CC(C)(C)c1ccc(C(Nc2ccccc2)C(=O)Nc2ccc3cnccc3c2)cc1` (stereo not shown) [Cpd 8] had an IC50 of 438 nM. In addition, under setting [1], the inhibition at 1 µM is 97.5%.
Consider `O=C(Nc1cccc2cnccc12)C(Nc1cccc(F)c1F)c1ccc(Cl)cc1` (stereo not shown) [Cpd 51], for which inhibition was half-maximal at 273 nM (IC50). Also, the inhibition at 0.5 µM under setting [1] is 87%.
On the same counts, the results for `O=C(Nc1cccc2cnccc12)C(Nc1ccccc1)c1ccc(C(F)(F)F)cc1` (single isomer, unassigned) [Cpd 30, N-Isoquinolin-5-yl-2-phenylamino-2-(4-trifluoromethyl-phenyl)-acetamide] are 257 nM and 96%.
In turn, `O=C(Nc1cccc2cnccc12)C(Sc1ccccc1)c1ccc(C(F)(F)F)cc1` (stereo not shown) [Cpd 56, N-(Isoquinolin-5-yl)-2-(phenylthio)-2-(4-(trifluoromethyl)phenyl)acetamide] came in with an IC50 of 130 nM.
Compound `O=C(NC1CCc2ccccc21)C(Nc1ccccc1)c1ccc(C(F)(F)F)cc1` (stereo not shown) [Cpd 10, N-Indan-1-yl-2-phenylamino-2-(4-trifluoromethyl-phenyl)-acetamide] came in with an IC50 of 158 nM. For the same compound, under setting [1], the inhibition at 1 µM was 100%.
In the case of `O=C(Nc1cccc2cnccc12)C(Nc1ccccc1)c1ccc(Cl)cc1` (stereo not shown) [Cpd 39], the IC50 amounted to 158 nM. Moreover, the inhibition at 0.5 µM under setting [1] was found to be 93%.
In turn, `O=C(Nc1cccc2cnccc12)C(Nc1ccccc1)c1ccc(C(F)(F)F)cc1` (single isomer, unassigned) [Cpd 31, N-Isoquinolin-5-yl-2-phenylamino-2-(4-trifluoromethyl-phenyl)-acetamide] displayed an IC50 of 17 nM. Moreover, the “% Inh @ 0.5 μM” value (0.5 μM compound, HEK293 canine TRPM8, icilin challenge, 0.5 µM) was determined as 102.16%.
Regarding `CC(C)(C)c1ccc(C(Nc2ccccc2)C(=O)Nc2cccc3[nH]ccc23)cc1` (stereo not shown) [Cpd 7], the IC50 worked out at 529 nM. In addition, under setting [1], the inhibition at 1 µM worked out at 100%.
With `O=C(Nc1cccc2cnccc12)C(Nc1ccccc1Cl)c1ccc(C(F)(F)F)cc1` (stereo not shown) [Cpd 11], half-maximal inhibition (IC50) required 89.1 nM. Under setting [1], the inhibition at 0.5 µM was 104%.
On the same counts, the results for `O=C(Nc1cccc2[nH]ccc12)C(Nc1cccc(F)c1)c1ccc(C(F)(F)F)cc1` (stereo not shown) [Cpd 37] are 217 nM and 94%.
On the same counts, the results for `O=C(Nc1cccc2ncccc12)C(Nc1c(F)cccc1F)c1ccc(Cl)cc1` (stereo not shown) [Cpd 49] are 92 nM and 83%.
`O=C(Nc1cccc2ncccc12)C(Nc1cccc(F)c1F)c1ccc(Cl)cc1` (stereo not shown) [Cpd 52]: it took 219 nM to reach half-maximal inhibition (IC50). Moreover, the inhibition at 0.5 µM under setting [1] came out at 80%.
`O=C(Nc1cccc2cnccc12)C(Nc1ccccc1F)c1ccc(Cl)cc1` (stereo not shown) [Cpd 44] yielded an IC50 of 96.8 nM. Also, the inhibition at 0.5 µM under setting [1] was 98%.
Consider `O=C(Nc1cccc2cnccc12)C(Nc1ccccc1)c1ccc(C(F)(F)F)cc1` (stereo not shown) [Cpd 4, N-Isoquinolin-5-yl-2-phenylamino-2-(4-trifluoromethyl-phenyl)-acetamide], for which the IC50 is 72 nM and 28.9 nM. Also, under setting [1], the inhibition at 0.5 µM stood at 104% and the inhibition at 1 µM was 102%.
The compound `O=C(Nc1cccc2cnccc12)C(Nc1ccc(F)cc1)c1ccc(C(F)(F)F)cc1` (stereo not shown) [Cpd 35] had an IC50 of 73 nM. In addition, under setting [1], the inhibition at 0.5 µM was determined as 99%.
Taken in the same sequence, the figures for `O=C(Nc1cccc2cnccc12)C(Nc1ccccc1F)c1ccc(Br)cc1` (stereo not shown) [Cpd 41] were 82 nM and 98%.
In turn, `CN(c1ccccc1)C(C(=O)Nc1cccc2cnccc12)c1ccc(C(C)(C)C)cc1` (stereo not shown) [Cpd 3] registered an IC50 of 301 nM. The inhibition at 1 µM under setting [1] turned out to be 101%.
With `O=C(Nc1cccc2[nH]ccc12)C(Nc1ccc(F)cc1)c1ccc(C(F)(F)F)cc1` (stereo not shown) [Cpd 34], inhibition was half-maximal at 226 nM (IC50). Besides, the inhibition at 0.5 µM under setting [1] was 84%.
For `CC(C)(C)c1ccc(C(Nc2ccccc2)C(=O)Nc2cccc3cnccc23)cc1` (stereo not shown) [Cpd 1], the IC50 worked out at 35.8 nM. Also, the inhibition at 1 µM under setting [1] came to 103%.
Compound `O=C(Nc1cccc2cnccc12)C(Nc1cccc(F)c1)c1ccc(C(F)(F)F)cc1` (stereo not shown) [Cpd 36] registered an IC50 of 119 nM. For the same compound, the inhibition at 0.5 µM under setting [1] was found to be 95%.
Compound `O=C(Nc1cccc2cn[nH]c12)C(Nc1ccccc1)c1ccc(C(F)(F)F)cc1` (stereo not shown) [Cpd 28] displayed an IC50 of 161 nM. For the same compound, the inhibition at 0.5 µM under setting [1] stood at 98.3%.
Taken in the same sequence, the figures for `O=C(Nc1cccc2cnccc12)C(Nc1ccc(Cl)cc1)c1ccc(C(F)(F)F)cc1` (stereo not shown) [Cpd 13] were 489 nM and 86.9%.
On the same counts, the results for `COc1ccccc1NC(C(=O)Nc1cccc2cnccc12)c1ccc(C(F)(F)F)cc1` (stereo not shown) [Cpd 21] are 287 nM and 95.3%.
Taken in the same sequence, the figures for `O=C(Nc1cccc2cnccc12)C(c1ccc(C(F)(F)F)cc1)N1CCCc2ccccc21` (stereo not shown) [Cpd 19] were 586 nM and 79.7%.

The term inhibition denotes the drop in the measured response relative to a control, in per cent. A word on the IC50: it is the concentration that gives 50% inhibition. Higher therefore signals a need for much substance.
